The values that follow come from article PMC2895808 (Vaccine, 2010).

Ends that are not written are not given here.

Common to all, as to assay: biochemical
For assay [1], the target named is HLA A*6802 (Homo sapiens, UniProt P04439, A269V/D140Y/D185E/E176V/E277Q/E87N/F33Y/G231S/I121R/I166T/I218V/L180W/L300P/L318F/N151K/P208A/P217A/Q86R/R138H/R169H/S129P/T345S/V36M).
The target in assay [2] is HLA A*0203 (Homo sapiens, UniProt P04439, A173T/D140Y/D185E/D98H/E277Q/G131W/G231S/I119V/I121R/I166T/I218V/L180W/L300P/L318F/N151K/N90K/P208A/P217A/Q86G/Q94H/R138H/R169H/T345S).
The target of assay [3] is HLA A*0202 (Homo sapiens, UniProt P04439, D140Y/D185E/D98H/E176V/E277Q/G131W/G231S/I119L/I121R/I166T/I218V/L180W/L300P/L318F/N151K/N90K/P208A/P217A/Q67R/Q86G/Q94H/R138H/R169H/T345S).
For assay [4], the target named is HLA B*5101 (Homo sapiens, UniProt P01889, A329T/A93T/A95T/C349S/D138N/D201E/D98Y/E187L/E204Q/E69T/G107R/I218V/K202T/L105A/L119W/N104I/Q94N/R106L/R155S/R180L/S101N/S121T/S35A/S48A/V306I/V36M/Y195H/Y91F).
Assay [5] deals with HLA B*3503 (Homo sapiens, UniProt P01889, A329T/A93T/A95T/C349S/D201E/D98Y/E176V/E187L/E204Q/E69T/I218V/K202T/L119I/Q94N/R155S/R180L/S121R/S35A/S48A/T118I/V127L/V306I/V36M/Y140F/Y91F).
Assay [6] has as its target HLA B*5301 (Homo sapiens, UniProt P01889, A329T/A93T/A95T/C349S/D201E/D98Y/E176V/E187L/E204Q/E69T/G107R/I218V/K202T/L105A/L119I/N104I/Q94N/R106L/R155S/R180L/S101N/S121R/S35A/S48A/T118I/V127L/V306I/V36M/Y140S/Y91F).
Assay [7] has as its target HLA B*0702 (Homo sapiens, UniProt P01889).
In assay [8] the target is HLA B*4201 (Homo sapiens, UniProt P01889, D138N/E176V/E187T/K202T/R180D).
For assay [9], the target named is HLA B*3501 (Homo sapiens, UniProt P01889, A329T/A93T/A95T/C349S/D201E/D98Y/E176V/E187L/E204Q/E69T/I218V/K202T/L119I/Q94N/R155S/R180L/S121R/S35A/S48A/T118I/V127L/V306I/V36M/Y140S/Y91F).
In assay [10] the target is HLA B*5401 (Homo sapiens, UniProt P01889, A329T/C349S/D138N/D201E/E176V/E187T/E204Q/E69G/I76V/K202T/L119W/R155S/R180L/S121T/S35A/S48A/V127L/V306I/V36M/Y140L).

On to `CC(C)C[C@H](NC(=O)[C@H](Cc1ccccc1)NC(=O)[C@@H](NC(=O)[C@@H](NC(=O)[C@H](Cc1ccccc1)NC(=O)[C@@H]1CCCN1C(=O)[C@@H](NC(=O)[C@H](CC(C)C)NC(=O)[C@@H](N)Cc1ccccc1)C(C)C)C(C)C)C(C)C)C(=O)O` [Peptide 7103.0003], for which the IC50 in assay [1] is 1.5 nM; in [2] it was 0.11 nM; in [3] it was < 0.1 nM.

`CSCC[C@H](NC(=O)[C@H](Cc1ccccc1)NC(=O)[C@@H](NC(=O)[C@@H](NC(=O)[C@H](Cc1ccccc1)NC(=O)[C@@H](NC(=O)[C@@H](N)C(C)C)C(C)C)C(C)C)C(C)C)C(=O)NCC(=O)N[C@H](C(=O)O)C(C)C` [Peptide 7103.0001]: the results for the IC50 in assay [1] and in assay [3] were 39 nM and 3450 nM, respectively.

HPGSVNEFDF [HF10]: the IC50 came to 14700 nM in assay [4]; 11500 nM in assay [5]; 5520 nM in [6]; 3620 nM in assay [7]; 877 nM in assay [8]; 2090 nM in assay [9]. In assay [10], the half-inhibitory concentration (IC50) turned out to be 854 nM.
